How the values were obtained:
[1] = system: progenitors from the bone marrow; experiment: Mobilization of progenitors from the bone marrow (NSAID comparison); conditions: in vivo
[2] = system: circulating endothelial colony forming cells (ECFC); experiment: Circulating endothelial colony forming cells (ECFC) in human volunteers before and after meloxicam; type: in vivo; conditions: post 5 day regimen; before treatment only 4/7 had detectable ECFC
Experimental: For analysis of circulating ECFC, PB mononuclear cells were plated in media at 37° C., 5% CO2, 5% O2 in 6 well culture plates coated with type 1 collagen. Media was be replaced every other day for 7-14 days at which time the adherent colonies of endothelial cells (EC) are removed with Trypsin and replated in collagen coated culture wells at a single cell per well. After 14 days each well is visually examined to determine whether there are 2 or more cells per well and if so, the total number of EC counted.

Compound | ability to mobilize progenitors from the bone marrow [1] | volunteers with detectable ECFC in 40 mL of blood post treatment [2]
Cc1onc(-c2ccccc2)c1-c1ccc(S(N)(=O)=O)cc1 [valdecoxib] | unable to mobilize | –
CC(=O)Oc1ccccc1C(=O)O [aspirin] | highly effective | –
Cc1cnc(NC(=O)C2=C(O)c3ccccc3S(=O)(=O)N2C)s1 [Meloxicam, meloxicam] | – | 7/7

— patent US20140065706A1, “MATERIALS AND METHODS FOR MOBILIZING CELLS INCLUDING CD34+, HEMATOPOIETIC COLONY FORMING, AND ENDOTHELIAL COLONY FORMING CELLS” (Indiana University Research and Technology Corp., priority 2010, published 2014)
